One assay concerns the target T1, human topoisomerase I (Homo sapiens, UniProt P11387).
T1 construct: 15 amino acid fusion from pET-11a vector (N); made in house; host or cells: E. coli BL21(DE3)
T1 sequence (P11387 1-765): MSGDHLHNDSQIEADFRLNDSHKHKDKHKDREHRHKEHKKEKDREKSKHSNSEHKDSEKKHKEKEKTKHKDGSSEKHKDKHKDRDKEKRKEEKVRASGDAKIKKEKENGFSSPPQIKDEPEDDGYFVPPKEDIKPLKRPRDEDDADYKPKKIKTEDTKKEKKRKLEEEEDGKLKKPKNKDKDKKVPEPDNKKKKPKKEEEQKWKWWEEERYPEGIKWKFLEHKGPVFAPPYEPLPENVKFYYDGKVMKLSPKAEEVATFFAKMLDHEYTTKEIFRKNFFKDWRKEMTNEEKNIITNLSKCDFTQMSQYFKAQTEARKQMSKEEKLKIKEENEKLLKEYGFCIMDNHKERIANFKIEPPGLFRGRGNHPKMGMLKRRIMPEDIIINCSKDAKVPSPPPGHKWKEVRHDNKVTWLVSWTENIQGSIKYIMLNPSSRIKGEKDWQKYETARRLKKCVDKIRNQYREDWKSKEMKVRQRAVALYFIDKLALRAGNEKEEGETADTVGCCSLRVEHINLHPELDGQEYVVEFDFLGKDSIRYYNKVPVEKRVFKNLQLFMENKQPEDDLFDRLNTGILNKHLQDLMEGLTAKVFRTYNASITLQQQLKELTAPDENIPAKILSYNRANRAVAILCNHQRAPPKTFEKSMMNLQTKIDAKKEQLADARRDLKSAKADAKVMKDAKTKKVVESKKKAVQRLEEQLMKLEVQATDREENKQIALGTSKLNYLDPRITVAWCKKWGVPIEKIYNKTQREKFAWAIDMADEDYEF
Kind of assay: Topo I-mediated DNA cleavage assay. In kind it is biochemical. To be noted: concentration relative to camptothecin (CPT = 1) producing the same cleavage on plasmid DNA in the presence of human topoisomerase I. From the text:
To obtain large quantity of human topoisomerase I, the human topoisomerase I cDNA was cloned into the pET-11a vector, in which transcription of the cDNA is under the control of the inducible T7 promoter (Studier et al., Methods in Enzymol., Vol. 185:60-89, San Diego: Academic Press (1990)). Briefly, a 3.4 kb DNA fragment containing the entire coding sequence of human topoisomerase I and approximately 1 kb of untranslated region downstream of the stop codon was isolated from the plasmid YCpGAL1-hTOP1 (Bjornsti et al., Cancer Res. 49:6318-6323 (1989)) by cutting at the BamHI and EcoRI sites. The vector pET-11a was cut with the same restriction enzymes, dephosphorylated and ligated to the insert in the proper reading frame downstream of the vector cloning site. […] Since the translational start in pET is positioned at an upstream NdeI site, the expressed topoisomerase I has a 15 amino acid fusion at its N-terminus. pET1B was then transformed into E. coli BL21 (DE3), and, upon induction with 0.4 mM IPTG for 1 hour, the bacterial lysate was analyzed by 10% SDS-PAGE. […] Briefly, E. coli cells were lysed by repeated sonic bursts. The sonic extract was made in 1 M NaCl and 6% polyethylene glycol (PEG) to remove nucleic acids. The PEG supernatant was chromatographed directly on a hydroxyapatite column. […] The eluted enzyme was dialyzed against 50% glycerol, 30 mM potassium phosphate (pH 7.0), 1 mM dithiothreitol (DTT) and 0.1 mM EDTA and stored at -20° C.
(§1) Cleavage assays for the recombinant topoisomerases I and calf thymus topoisomerases I and II were done as described (Liu et al., J. Biol. Chem. 258:15365-15370 (1983)). The plasmid YEpG DNA used for the cleavage assays was prepared and labeled at its 3'-end using the published procedures.

Assay [1] addresses T2, calf thymus topoisomerase II (Bos taurus, UniProt F1MDU7).
T2 construct: from tissue; host or cells: calf thymus glands
Kind of assay: Topo II-mediated DNA cleavage assay. To be noted: concentration relative to VM26 (= 1) producing the same cleavage on plasmid DNA in the presence of calf thymus topoisomerase II. It counts as biochemical.
Description: The plasmid pET11a and the E. coli strain BL21(DE3) used for enzyme expression were purchased from Novagen. IPTG was purchased from Sigma. The ECL system used for the Western blotting analysis of bacterial lysates was from Amersham (UK). All the restriction enzymes and Vent polymerase were from New England Biolabs. Mammalian topoisomerase II was isolated from calf thymus glands according to the published procedure (Halligan et al., J. Biol. Chem. 260:2475-2482 (1985)). The single copy yeast plasmids YCpGAL1 expressing various topoisomerase I genes in JN2-134 yeast strain were a kind gift of Dr. M-A. Bjornsti (Thomas Jefferson University, Philadelphia, Pa.). All bacterial and yeast media were from Difco (Detroit, Mich.), while cell culture media were purchased from Gibco-BRL (Gaithersburg, Md.).
as §1

The test system of assay [2] is Human lymphoblast RPMI 8402 cells. Kind of assay: MTT-microtiter plate tetrazolinium cytotoxicity assay (MTA), RPMI 8402. Conditions: Homo sapiens, read-out: Cytotoxicity IC50, RPMI. It counts as cell-based. On the procedure: (§2) The IC50 of the drugs tested were determined by the MTT-microtiter plate tetrazolinium cytotoxicity assay (MTA) (Mosmann, T., J. Immunol. Methods 65:55-63 (1983); Denizot et al., J. Immunol. Methods 89:271-277 (1986)). Human lymphoblast RPMI 8402 cells and their camptothecin-resistant CPT-K5 cells (Andoh et al., Proc. Natl. Acad. Sci., USA 84:5565-5569 (1987)) were kindly provided by Dr. Toshiwo Andoh (Aichi Cancer Center Research Institute, Nagoya, Japan). The cell lines A2780 and its camptothecin-resistant derivative CPT-2000 were a generous gift of Dr. Jaulang Hwang (Institute of Molecular Biology, Academia sinica, Taiwan). Cells (2000 cells/well, seeded in […] growth medium) were grown in suspension at 37° C. in 5% CO2 and maintained by regular passage in RPMI medium supplemented with 10% heat inactivated fetal bovine serum, L-glutamine (2 mM), penicillin (100 U/mi), and streptomycin (0.1 mg/ml). The cells were exposed continuously for 4 days to drug concentrations ranging from 100 ug/ml to 1.0 ng/ml in ten fold dilutions, and assayed at the end of the fourth day. Each concentration and the no drug control were repeated at least twice in 6 replica wells. The results were plotted and the IC50 then measured. The drug sensitive human epidermoid carcinoma KB 3-1 cell line and its vinblastine-selected multidrug-resistant variant KB-V1 cells (Akiyama et al., Genetics 11:117-126 (1985)) were kindly provided by Dr. Michael Gottesmann (National Cancer Institute). They were grown as monolayer cultures at 37° C. in 5% CO2 and maintained by regular passage in Dulbecco's minimal essential medium supplemented with 10% heat inactivated fetal bovine serum. KB-V1 cells were maintained in the presence of […] vinblastine.

Assay [3] deals with camptothecin-resistant CPT-K5 cells. As to the kind of experiment: MTT-microtiter plate tetrazolinium cytotoxicity assay (MTA), CPT-K5. To be noted: Homo sapiens, read-out: Cytotoxicity IC50, CPT-K5. In kind it is cell-based, human. Here is the method:
as §2

The IC50 is the point on the concentration scale where inhibition reaches its midpoint.

Where two headings read alike, the source gives them in different places.

T2 sequence (F1MDU7 1-1532): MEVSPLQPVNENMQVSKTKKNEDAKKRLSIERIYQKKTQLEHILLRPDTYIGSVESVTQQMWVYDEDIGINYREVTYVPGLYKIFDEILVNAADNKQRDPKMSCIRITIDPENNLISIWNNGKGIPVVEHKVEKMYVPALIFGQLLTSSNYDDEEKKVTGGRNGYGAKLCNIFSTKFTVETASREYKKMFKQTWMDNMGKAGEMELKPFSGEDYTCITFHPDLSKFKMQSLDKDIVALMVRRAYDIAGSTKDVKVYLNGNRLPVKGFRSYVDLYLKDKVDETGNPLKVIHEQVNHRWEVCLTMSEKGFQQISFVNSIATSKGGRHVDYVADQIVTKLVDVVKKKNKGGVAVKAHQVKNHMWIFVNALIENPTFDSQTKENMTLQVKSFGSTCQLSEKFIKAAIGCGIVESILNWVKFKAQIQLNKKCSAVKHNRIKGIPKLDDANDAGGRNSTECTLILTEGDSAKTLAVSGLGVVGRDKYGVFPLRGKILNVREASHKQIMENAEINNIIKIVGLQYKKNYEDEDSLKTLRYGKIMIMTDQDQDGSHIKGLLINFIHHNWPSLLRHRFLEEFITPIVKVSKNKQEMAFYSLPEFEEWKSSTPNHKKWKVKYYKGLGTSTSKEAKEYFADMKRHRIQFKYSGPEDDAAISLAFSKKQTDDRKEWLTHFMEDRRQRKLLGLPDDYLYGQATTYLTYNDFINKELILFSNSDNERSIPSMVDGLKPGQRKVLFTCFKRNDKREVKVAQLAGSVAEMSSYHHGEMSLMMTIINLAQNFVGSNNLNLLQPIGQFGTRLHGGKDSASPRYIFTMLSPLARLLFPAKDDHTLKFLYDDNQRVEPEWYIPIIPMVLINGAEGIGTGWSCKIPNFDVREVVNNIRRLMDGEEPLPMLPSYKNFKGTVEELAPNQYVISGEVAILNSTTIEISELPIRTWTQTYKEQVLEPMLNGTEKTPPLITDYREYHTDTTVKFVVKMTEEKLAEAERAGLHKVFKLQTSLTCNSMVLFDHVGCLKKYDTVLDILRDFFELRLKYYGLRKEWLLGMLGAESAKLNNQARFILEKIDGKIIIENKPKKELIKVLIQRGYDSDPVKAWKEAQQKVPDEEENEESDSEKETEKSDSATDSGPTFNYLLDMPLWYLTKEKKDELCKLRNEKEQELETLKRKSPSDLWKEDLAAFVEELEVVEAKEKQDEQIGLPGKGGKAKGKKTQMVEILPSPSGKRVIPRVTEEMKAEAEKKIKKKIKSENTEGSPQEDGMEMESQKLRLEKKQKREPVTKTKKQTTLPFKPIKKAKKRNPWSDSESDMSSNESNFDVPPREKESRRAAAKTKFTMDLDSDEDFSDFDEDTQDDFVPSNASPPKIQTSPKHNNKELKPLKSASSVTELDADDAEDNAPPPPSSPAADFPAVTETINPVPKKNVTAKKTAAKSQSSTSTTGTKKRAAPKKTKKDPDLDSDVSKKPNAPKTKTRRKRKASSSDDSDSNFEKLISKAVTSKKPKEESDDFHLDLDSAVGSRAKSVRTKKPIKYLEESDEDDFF

Take `COc1cc2cc3c(ccc4cc(OC)c(OC)cc43)nc2cc1OC` [Compound 14a, 2,3,9,10-Tetramethoxybenz[a]acridine]: on human topoisomerase I, the “Topo I-mediated DNA cleavage (REC, Relative Effective Concentration)” value was 1000. Besides, the “Topo II-mediated DNA cleavage (REC, Relative Effective Concentration)” value in assay [1] was above 1000. The IC50 stood at 2.9 µM in assay [2] (RPMI 8402, 96 h) and 2.9 µM in assay [3] (CPT-K5, 96 h).
Turning to `COc1cc2ccc3nc4cc5c(cc4cc3c2cc1OC)OCO5` [Compound 14b, 2,3,-Dimethoxy-9,10-methylenedioxybenz[a]acridine], the “Topo I-mediated DNA cleavage (REC, Relative Effective Concentration)” value on human topoisomerase I worked out at 1000. For the same compound, the “Topo II-mediated DNA cleavage (REC, Relative Effective Concentration)” value in assay [1] is recorded as above 1000. Besides, the IC50 in assay [2] (RPMI 8402, 96 h) stood at 4.5 µM; in assay [3] (CPT-K5, 96 h) it was 7.5 µM.
The like results for `COc1cc2cc3c(ccc4ccccc43)nc2cc1OC` [Compound 14c, 9,10-Dimethoxybenz[a]acridine] were, in that order, above 1000, above 1000, 10.4 µM and 31.1 µM.
Turning to `COc1cc2ccc3nc4ccccc4cc3c2cc1OC` [Compound 14d, 2,3-Dimethoxy-benz[a]acridine], on human topoisomerase I, the “Topo I-mediated DNA cleavage (REC, Relative Effective Concentration)” value was found to be 1000. Also, the “Topo II-mediated DNA cleavage (REC, Relative Effective Concentration)” value in assay [1] was above 1000. In addition, the IC50 in assay [2] (RPMI 8402, 96 h) turned out to be 10.4 µM; in assay [3] (CPT-K5, 96 h) it was 13.8 µM.
The corresponding values for `Oc1cc2cc3c(ccc4cc(O)c(O)cc43)nc2cc1O` [Compound 14g, 2,3,9,10-tetrahydroxybenz[a]acridine] are 100, above 1000, 17.1 µM and above 34 µM.
The like results for `COc1cc2cc3c(ccc4cc(Cl)ccc43)nc2cc1OC` [Compound 14j, 3-Chloro-9,10-dimethoxybenz[a]acridine] were, in that order, 1000, above 1000, above 31 µM and above 31 µM.
The like results for `COc1cc2c(cc1OC)-c1cc3cc(OC)c(OC)cc3[n+](C)c1CC2` [Compound 15a, 2,3,9,10-Tetramethoxy-7-methyl-5,6-dihydrobenz[a]acridinium methosulfate] were, in that order, 100, above 1000, above 24 µM and above 24 µM.
Regarding `COc1cc2ccc3c(cc4cc(OC)c(OC)cc4[n+]3C)c2cc1OC` [Compound 16a, 2,3,9,10-Tetramethoxy-7-methylbenz[a]acridinium methosulfate], at human topoisomerase I, the “Topo I-mediated DNA cleavage (REC, Relative Effective Concentration)” value is given as above 1000. In addition, the “Topo II-mediated DNA cleavage (REC, Relative Effective Concentration)” value in assay [1] is reported as above 1000. For the same compound, the IC50 in assay [2] (96 h, RPMI 8402 cells, 4 days of continuous drug exposure) was found to be 25.3 µM; in assay [3] (96 h, camptothecin-resistant CPT-K5 cells, 4 days of continuous drug exposure) it was 23.2 µM.
Take `COc1cc2cc3c(nc2cc1OC)CCc1ccc(N)cc1-3` [Compound 20, 2-Amino-9,10-dimethoxy-5,6-dihydrobenz[a]acridine]: the “Topo I-mediated DNA cleavage (REC, Relative Effective Concentration)” value on human topoisomerase I worked out at 100. Besides, the “Topo II-mediated DNA cleavage (REC, Relative Effective Concentration)” value in assay [1] is on record as above 1000. Besides, the IC50 was 16.3 µM in assay [2] (RPMI 8402, 96 h) and above 33 µM in assay [3] (CPT-K5, 96 h).
The like results for `COc1cc2cc3c4cc(OC)c(OC)cc4cc[n+]3c(C)c2cc1OC` [Coralyne, reference compound] were, in that order, 1, above 1000, 4.9 µM and 20 µM.
The corresponding values for `COc1cc2c[n+](C)c3c4cc5c(cc4ccc3c2cc1OC)OCO5` [Nitidine, reference compound] are 0.1, 5, 0.4 µM and 3.9 µM.

(Values after patent publication US5981541A, “Substituted heterocycles as anti-tumor agents” (Rutgers, The State University of New Jersey, priority 1997, dated 1999).)
